Patent US11236080B2, “Protein kinase inhibitors” (Princeton Drug Discovery Inc, priority 2016, dated 2022)

Key:
[1] = Metabolic stability in human liver microsomes; type: in vitro ADME; settings: human liver microsomes 0.5 mg/mL, NADPH and UDPGA, 37° C., read-out: In vitro t1/2
Method: FIG. 1. Metabolic stability of compounds in human liver microsomal incubations. […] Concentrations at specified times were determined by LC-MS/MS.
The incubation reactions at various time points were quenched by adding 2× volumes of acetonitrile containing 100 nM reserpine. The quenched incubation samples were centrifuged at 4000 RPM for 10 min, and the supernatants injected for LC/MS/MS analysis. LC/MS/MS analysis was carried out on a AB Sciex 4000 Q Trap LC/MS/MS system coupled with Shimadzu Prominence UFLCXR 20 series (including a CBM-20A controller, two LC-20ADXR solvent delivery units, SIL-20AC HT autosampler, CTO-20A column oven, and a SPD-20A UV detector).

[2] = Lung tissue and plasma concentration ratios; type: in vivo, CD-1 mouse; settings: mice, single oral dose 5 mg/kg, dosed together with dasatinib, all time points
Method: CD-1 mouse (approximate weight 30 g, N=3) were dosed by oral gavage at 10 mL/kg. Blood samples were collected into tubes containing EDTA as the anticoagulant at 1, 2, 4, 10 h post-dosing for Compound X, and predose, 1, 2, 3, 8, 10 and 24 h post-dosing for Compound XI. The plasma samples were prepared by centrifugation. Lung samples were also collected at each of the above time points. The lung samples were homogenated in 4× distilled water (v/w). The plasma samples and the homogenated lung tissue samples were mixed with 3× volumes of acetonitrile containing 100 nM reserpine as the internal standard, and centrifuged at 4000 RPM for 15 min. The supernatants were injected for LC/MS analysis which were carried out on a AB Sciex 4000 Q Trap LC/MS/MS system coupled with Shimadzu Prominence UFLCXR 20 series (including a CBM-20A controller, two LC-20ADXR solvent delivery units, SIL-20AC HT autosampler, CTO-20A column oven, and a SPD-20A UV detector). The samples were separated on a Phenomenex Columbus column (C18, 4 μm, 50×2 mm) eluted with two solvent systems: 2 mM ammonium acetate in water containing 0.1% formic acid (A) and methanol (B) at a linear gradient starting at 25%. Electrospray ionization in positive mode was used to acquire LC/MS/MS data.

Compound	half-life at 1 μM [1] [h]	ratio of lung tissue concentration to plasma concentration, compared to dasatinib [2]
[2H]c1cc(C)c(NC(=O)c2cnc(Nc3cc(N4CCCCC4)nc(C)n3)s2)c(Cl)c1 [Compound I, N-(2-chloro-4-deuterio-6-methyl-phenyl)-2-[[2-methyl-6-(1-piperidyl)pyrimidin-4-yl]amino]thiazole-5-carboxamide]	4.68	
Cc1nc(Nc2ncc(C(=O)Nc3c(C)cccc3Cl)s2)cc(N2CC[C@H](O)C2)n1 [Compound X, N-(2-chloro-6-methylphenyl)-2-[[2-methyl-6-((S)-3-hydroxypyrrolidin-1-yl)pyrimidin-4-yl]amino]thiazole-5-carboxamide]		significantly lower ratios
Cc1nc(Nc2ncc(C(=O)Nc3c(C)cccc3Cl)s2)cc(N2CC[C@@H](O)C2)n1 [Compound XI, N-(2-chloro-6-methylphenyl)-2-[[2-methyl-6-((R)-3-hydroxypyrrolidin-1-yl)pyrimidin-4-yl]amino]thiazole-5-carboxamide]		significantly lower ratios
